Test results taken from patent publication US5747503A, “Selective inhibitors of biogenic amine transporters” (priority 1996, dated 1998).
pIC50: −log10 of the molar value. “Also recorded” adds a separate entry of the source.

How the values were obtained:
[1] = tested on: eleven neurotransmitter, four regulatory site, four ion channel, and three second-messenger assays; test: NovaScreen/NIMH Psychoactive Drug Discovery Program panel; details: 10^-5 M
Method: Compound 3b also was tested in the NovaScreen/NIMH Psychoactive Drug Discovery Program which included eleven neurotransmitter, four regulatory site, four ion channel, and three second-messenger assays.

[2] = tested on: extracellular dopamine in the nucleus accumbens; test: In vivo microdialysis of extracellular dopamine in nucleus accumbens; design: species or system rat
Method: FIG. 3. In vivo microdialysis of extracellular dopamine in the nucleus accumbens at concentrations of 1, 10, and 100 μM of RTI-4793-14. All values are mean ±SEM (n=4). Group comparisons are made with one-way ANOVA and the Dunnetts t-test *p<0.05 and **p<0.01.
FIG. 4. Effects of systemic RTI-4793-14 (5 mg/kg, i.v.) on extracellular dopamine in the nucleus accumbens. All values are mean ± SEM (n=3). Group comparisons are made with one-way ANOVA and the Dunnetts t-test *p<0.05 and **p<0.01. FIG. 5. Schematic diagram for the synthesis of RTI-4793-41 and RTI-4793-48 compounds and analogs thereof.
Male Sprague Dawley rats (350-450 g) were anesthetized with chloral hydrate (400 mg/kg; 100 mg/ml) and supplemented as required (90 mg/kg) to abolish the corneal reflex. Animals were then placed in a stereotaxic frame and dialysis probes (CMA 12, 2 mm) were implanted into the nucleus accumbens (AP:+2mm, LAT:+l.5mm, H:-7.5mm relative to bregma) according to the atlas of Paxinos and Watson (Paxinos, G. "The rat brain in stereotaxic coordinates." (New York: Academic Press, 1982)). The dialysis probes were perfused with a physiological medium containing 145 mM NaCl, 4 mM KCl, 1.3 mM CaCl2, and 2 mM Na2 HPO41 the final pH of the medium being pH 7.4. The probes were dialyzed at a flow rate of […]. and samples were collected every 15 min.
The dialysis probes were allowed to equilibrate for 1-2 hours prior to collection of the baseline samples. […] RTI-4793-14 (1-100 μM) was then administered focally via the dialysis probe for a 15 min. sampling period at the end of which normal dialysis medium was dialyzed through the probe. Sampling continued for a further 3 samples before application of the subsequent concentration of RTI-4793-14. In a subsequent group of animals RTI-4793-14 was administered systemically (5mg/kg; 5mg/ml) via a femoral vein catheter.
The samples were analyzed for DA using HPLC with electrochemical detection. The mobile phase (75 mM NaH2 PO4, 1.5 mM sodium dodecyl sulphate, 20 mM EDTA, 15% acetonitrile and 12% methanol, pH 5.6) was filtered and degassed before pumping at a rate of 0.75 ml/min. through a HR-80 column (3m BDS, 80×4.6 mm). Electrochemical detection-was performed using a Coulochem II with Guard cell:+350 mV, Det 1: -75 mV, and Det 2: +22 mV.
In vivo microdialysis data were analyzed by using a one-way ANOVA and post-hoc Dunnetts t-test. In the focal RTI experiments in which 3 drug concentrations were administered, the baseline value for dopamine was defined as the sample preceding the application of each drug concentration. Analysis of any drug effect was therefore made comparing the baseline value prior to the drug administration.

NMDA receptor = details: Table 2; literature values (footnotes 1 and 2); read-out: NMDA Induced Current IC50; cited from earlier work
DA transporter = details: Kuhar et al. 1990; cited from earlier work

SMILES	inhibition in NovaScreen panel [1]	increase in extracellular DA ([2]; focal application via the microdialysis probe, 1 μM)	increase in extracellular DA ([2]; focal application via the microdialysis probe, 10 μM)	increase in extracellular DA ([2]; intravenous, 5 mg/kg)	effect on extracellular dopamine in words ([2]; local or systemic administration in rats)	pIC50 (NMDA receptor)	affinity at the DA transporter labeled with [^3 H]mazindol (DA transporter)
CN1[C@H](Cc2ccccc2)C[C@H]2Cc3ccccc3[C@H]21 (relative stereo) [RTI-4793-14, (2RS, 3aSR, 8aRS)-1,2,3a,8,8a-Hexahydro-2-benzyl-1-methyl-indeno[1,2-b]pyrrole]	No significant inhibition	about 2 fold	~8 fold	about 2 fold	increased extracellular DA; also recorded: increase the levels of dopamine in the brain		
c1ccc(C2(N3CCCCC3)CCCCC2)cc1 [PCP, phencyclidine]						5.70	low affinity
